Test results reported in US20140127316A1, “PROPOLIS AND CAFFEIC ACID PHENETHYL ESTER AND USES THEREOF” (NEW YORK UNIVERSITY, priority 2011, published 2014).

Columns and labels:
[1] = test system: progesterone receptor (PR); experiment: Immunoblotting of PR in MCF-7 cells; assay type: cell-based; settings: FIG. 3
[2] = test system: multidrug resistance 1 (mdr-1) gene; experiment: Gene expression microarray analysis; assay type: cell-based
[3] = test system: histone deacetylases (HDAC); experiment: Western blotting of acetylated histone proteins in breast cancer cell lines; assay type: cell-based, human; settings: MDA-231 and MCF-7 cells, FIG. 2
Source text: (§1) These cell lines serve as in vitro breast cancer models. […] This typically signifies the inhibition of histone deacetylases and is used as a readout of this process via Western blotting. […] Further, FIGS. 3 and 4 provide additional evidence of the epigenetic changes that occur with CAPE and propolis resulting from HDAC inhibition. FIG. 3 depicts the downregulation of the estrogen receptor (ER) and progesterone receptor (PR) in MCF-7 cells and the downregulation of the epidermal growth factor receptor (EGFR) in MDA-231 cells (FIG. 4B). The re-expression of a previously silenced gene, (ER), a key function of HDAC inhibition, is depicted by the upregulation of the estrogen receptor in the ER-negative MDA-231 cell line (FIG. 4A). Furthermore, we have shown the HDAC inhibitor activity is not just restricted to breast cancer, but also in lymphoma (FIG. 9).

[4] = test system: bCSC isolated from MDA-231 cells; experiment: Breast cancer stem cell (bCSC) clonal growth and self-renewal, mammospheres and soft agar; assay type: cell-based, human
Experimental: (§2) Nude mice bearing MDA-231 xenografts were fed CAPE-containing diets and/or treated topically with CAPE, and tumors measured twice/week. bCSC (breast CSC) were isolated from MDA-231 cells and xenografts, and propagated as mammospheres. Cell growth was analyzed using MTT and cell cycle by flow cytometry. Apoptosis was determined by co-staining bCSC with Annexin V and propidium iodide.

[5] = test system: endothelial cells; settings: cited from earlier work
[6] = test system: MDA-231 xenografts; experiment: MDA-231 xenografts in nude mice; assay type: in vivo
Experimental: as §2

[7] = test system: VEGF; settings: MDA-231 cells; cited from earlier work
[8] = test system: MDA-MB-231 (MDA-231) cells; experiment: Cell growth of MDA-231 cells (MTT); assay type: cell-based, human
Experimental: as §2

[9] = test system: NF-κB; settings: cited from earlier work
[10] = test system: normal human mammary epithelial cells; experiment: Effect on normal mammary epithelial cells; assay type: cell-based
[11] = test system: p-Her2; experiment: Immunoblotting of phosphorylated Her2 in SKBR3 cells; assay type: cell-based; settings: FIG. 5
Source text: The HDAC inhibition seen in many BC cell lines by CAPE and propolis results in the decrease of EGFR over-expression and induction of ER in MDA-231 cells and decrease in ER and PR expression in MCF-7 cells (FIG. 3, 4). CAPE and Propolis cause a decrease in p-Her2, the activated form of Her 2 in SKBR3 cells, likely through intracellular signaling mechanisms (FIG. 5). […] To establish that the epigenetic effects of CAPE can be recapitulated in the natural product, we determined the concentration of CAPE in propolis by HPLC. […] Furthermore, the enhanced effects of HDAC inhibition with propolis, compared to CAPE alone, make it a suitable candidate for a clinical trial in any area of oncology.

[12] = test system: histone deacetylases (HDAC); experiment: Western blotting of acetylated histone H3 in lymphoma cell lines; assay type: cell-based; settings: RIVA, LY 1, SU-DHL6 lymphoma cell lines, FIG. 9
Source text: FIG. 9 illustrates by Western Blotting CAPE induced hyperacetylation of Histone Proteins (Ac H3) in the indicated lymphoma cell lines (RIVA, LY 1, SU-DHL6).
as §1

[13] = test system: estrogen receptor (ER); experiment: ER re-expression in MDA-231 cells by immunofluorescence and RT-PCR; assay type: cell-based; settings: ER-negative MDA-231 cells, FIG. 4A
[14] = test system: estrogen receptor (ER); experiment: Immunoblotting of ER in MCF-7 cells; assay type: cell-based; settings: FIG. 3
[15] = test system: epidermal growth factor receptor (EGFR); experiment: Immunoblotting of EGFR in MDA-231 cells; assay type: cell-based; settings: FIG. 4B

Row | Effect on normal cells [10] | Structure (SMILES) | PR expression [1] | mdr-1 gene expression [2] | HDAC inhibition (accumulation of acetylated histone proteins) [3] | bCSC clonal growth [4] | bCSC and progenitor self-renewal (growth in soft agar) ([4]; pretreatment with 20 μM) | Tubule formation [5] | Growth of MDA-231 xenografts ([6]; dietary CAPE) | Tumor volume ([6]; subsequent topical treatment after dietary CAPE) | VEGF secretion [7] | Growth of MDA-231 cells [8] | NF-κB inhibition [9] | p-Her2 expression [11] | Acetylation of histone proteins (Ac H3) [12] | ER expression (re-expression of silenced gene) [13] | ER expression [14] | EGFR expression [15]
1 | innocuous | O=C(/C=C/c1ccc(O)c(O)c1)OCCc1ccccc1 [CAPE, caffeic acid phenethyl ester] | downregulation | down-regulates | HDAC inhibitors | decreased | decreased growth in soft agar | inhibits | significantly inhibited | further decreased | decreases | inhibits growth | inhibits | decrease | hyperacetylation | upregulation | downregulation | downregulation
2 |  | Cc1[nH]c2ccccc2c1CCNCc1ccc(/C=C/C(=O)NO)cc1 [LBH 589, reference compound] |  |  |  |  |  |  |  |  |  |  |  |  |  | re-expression |  | 
